Test results reported in patent publication US20250129430A1, “HIGH ATP-AFFINITY PROTEIN AS THERAPEUTIC TARGET FOR INTRACTABLE CANCER MOLECULAR SUBTYPES AND INHIBITOR THEREOF” (VeraVerse Co., Ltd., priority 2021, published 2025).

Experiments:
Assay in all cases: Cell viability drug screen, 12-point dose-response AUC
Type in all cases: cell-based, human
[1] = system: FU97; parameters: Average Area Under the Viability Curve (AUC), AUC norm value: scale not given here; conditions: FU97 cells; 72 hours
Procedure, shortened: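 Trapezoidal AUC of a 12-point, DMSO-normalized dose-response curve. Luminescent viability was measured after 72 h of exposure at 37° C to half-log serial dilutions (0.5% DMSO control), dosed 24 h after plating FU97 cells at 5×10^3 per well.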

[2] = system: SNU601; conditions: SNU601 cells; 72 hours
Procedure, shortened: (§1)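 Twelve half-log concentrations per compound were tested on gastric cancer cells with an EMT phenotype (5×10^3/well, dosed 24 h post-seeding). Viability after 72 h was quantified via luminescence relative to 0.5% DMSO, and repeats were averaged.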

[3] = system: SK4; conditions: SK4 cells (SEM subtype); 72 hours
Procedure, shortened: as §1

[4] = system: NCI_N87; conditions: NCI_N87 cells; 72 hours
Procedure, shortened: as §1

[5] = system: NCC19; conditions: NCC19 cells; 72 hours
Procedure, shortened: as §1

[6] = system: AGS; conditions: AGS cells (non-SEM subtype); 72 hours
Procedure, shortened: (§2)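 Luminescent viability readings, taken 15 min after reagent addition at room temperature, were normalized to the 0.5% DMSO control to build 12-point dose-response curves. Trapezoidal integration gave the AUC. Cells had been plated at 5×10^3 per well and then exposed to half-log dilutions for 72 h.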

[7] = system: SNU484; conditions: SNU484 cells (SEM subtype); 72 hours
Procedure, shortened: as §1

[8] = system: NCC24; conditions: NCC24 cells; 72 hours
Procedure, shortened: as §1

[9] = system: SNU638; conditions: SNU638 cells; 72 hours
Procedure, shortened: as §1

[10] = system: SNU620; conditions: SNU620 cells; 72 hours
Procedure, shortened: as §1

[11] = system: SNU668; conditions: SNU668 cells (SEM subtype); 72 hours
Procedure, shortened: as §1

[12] = system: SNU1967; conditions: SNU1967 cells; 72 hours
Procedure, shortened: as §1

[13] = system: NCC59; conditions: NCC59 cells; 72 hours
Procedure, shortened: as §1

[14] = system: SNU719; conditions: SNU719 cells; 72 hours
Procedure, shortened: as §2

[15] = system: SNU16; conditions: SNU16 cells; 72 hours
Procedure, shortened: as §1

[16] = system: MKN74; conditions: MKN74 cells; 72 hours
Procedure, shortened: as §2

[17] = system: YCC3; conditions: YCC3 cells; 72 hours
Procedure, shortened: as §1

[18] = system: Hs746T; conditions: Hs746T cells (SEM subtype); 72 hours
Procedure, shortened: as §1

[19] = system: KATO3; conditions: KATO3 cells; 72 hours
Procedure, shortened: as §1

[20] = system: SNU1750; conditions: SNU1750 cells (SEM subtype); 72 hours
Procedure, shortened: as §1

[21] = system: SNU216; conditions: SNU216 cells (non-SEM subtype); 72 hours
Procedure, shortened: as §2

[22] = system: YCC11; conditions: YCC11 cells (SEM subtype); 72 hours
Procedure, shortened: as §1

[23] = system: YCC2; conditions: YCC2 cells; 72 hours
Procedure, shortened: as §1

[24] = system: MKN1; conditions: MKN1 cells; 72 hours
Procedure, shortened: as §1

[25] = system: OCUM1; conditions: OCUM1 cells; 72 hours
Procedure, shortened: as §1

[26] = system: MKN45; conditions: MKN45 cells (non-SEM subtype); 72 hours
Procedure, shortened: as §2

[27] = system: SNU1; conditions: SNU1 cells; 72 hours
Procedure, shortened: as §1

[28] = system: NCC20; conditions: NCC20 cells; 72 hours
Procedure, shortened: as §1

[29] = system: MKN28; conditions: MKN28 cells; 72 hours
Procedure, shortened: as §1

SMILES	Average Area Under the Viability Curve (AUC), AUC norm value [1]	Average Area Under the Viability Curve (AUC), AUC norm value [2]	Average Area Under the Viability Curve (AUC), AUC norm value [3]	Average Area Under the Viability Curve (AUC), AUC norm value [4]	Average Area Under the Viability Curve (AUC), AUC norm value [5]	Average Area Under the Viability Curve (AUC), AUC norm value [6]	Average Area Under the Viability Curve (AUC), AUC norm value [7]	Average Area Under the Viability Curve (AUC), AUC norm value [8]	Average Area Under the Viability Curve (AUC), AUC norm value [9]	Average Area Under the Viability Curve (AUC), AUC norm value [10]	Average Area Under the Viability Curve (AUC), AUC norm value [11]	Average Area Under the Viability Curve (AUC), AUC norm value [12]	Average Area Under the Viability Curve (AUC), AUC norm value [13]	Average Area Under the Viability Curve (AUC), AUC norm value [14]	Average Area Under the Viability Curve (AUC), AUC norm value [15]	Average Area Under the Viability Curve (AUC), AUC norm value [16]	Average Area Under the Viability Curve (AUC), AUC norm value [17]	Average Area Under the Viability Curve (AUC), AUC norm value [18]	Average Area Under the Viability Curve (AUC), AUC norm value [19]	Average Area Under the Viability Curve (AUC), AUC norm value [20]	other results
Nc1nc(F)nc2c1ncn2[C@@H]1O[C@H](COP(=O)(O)O)[C@@H](O)[C@@H]1O [Fludarabine Phosphate (Fludara), Fludarabine Phosphate]	2.928	−0.5439	−1.653	−0.06169	2.411	−2.783	1.309	1.037	0.5006	−2.289	−1.511	2.186	1.479	2.046	−0.44	−0.1731	0	1.97	1.165	1.972	Average Area Under the Viability Curve (AUC), AUC norm value [21]: 1.771; Average Area Under the Viability Curve (AUC), AUC norm value [22]: −0.6417; Average Area Under the Viability Curve (AUC), AUC norm value [23]: −0.7765; Average Area Under the Viability Curve (AUC), AUC norm value [24]: 0.9748; Average Area Under the Viability Curve (AUC), AUC norm value [25]: −0.3967; Average Area Under the Viability Curve (AUC), AUC norm value [26]: −1.029; Average Area Under the Viability Curve (AUC), AUC norm value [27]: −0.7644; Average Area Under the Viability Curve (AUC), AUC norm value [28]: −2.507; Average Area Under the Viability Curve (AUC), AUC norm value [29]: 0.00328
COc1cccc2c1C(=O)c1c(O)c3c(c(O)c1C2=O)C[C@@](O)(C(=O)CO)C[C@@H]3O[C@H]1C[C@H](N)[C@H](O)[C@H](C)O1 [Doxorubicin (Adriamycin), Doxorubicin]	−1.237	4.481	0.213	6.891	2.867	−1.081	−0.8418	−0.6126	−0.3342	−0.2009	−0.3909	−0.8787	1.231	4.66	−0.0398	1.522	2.8776	−0.08449	7.9338	−0.9576	Average Area Under the Viability Curve (AUC), AUC norm value [21]: 0.7466; Average Area Under the Viability Curve (AUC), AUC norm value [22]: −1.877; Average Area Under the Viability Curve (AUC), AUC norm value [23]: 1.4121; Average Area Under the Viability Curve (AUC), AUC norm value [24]: −0.2016; Average Area Under the Viability Curve (AUC), AUC norm value [25]: 0.6788; Average Area Under the Viability Curve (AUC), AUC norm value [26]: 2.505; Average Area Under the Viability Curve (AUC), AUC norm value [27]: 0; Average Area Under the Viability Curve (AUC), AUC norm value [28]: −0.4879; Average Area Under the Viability Curve (AUC), AUC norm value [29]: 2.98
